Laboratory results taken from patent publication US20230374113A1, “FERRITIN NANOCAGE FUSED WITH PD-L1-BINDING PEPTIDE 1 AND USE THEREOF AS ANTICANCER IMMUNOTHERAPY AGENT” (KYUNGPOOK NATIONAL UNIVERSITY INDUSTRY-ACADEMIC COOPERATION …, priority 2020, published 2023).

How the values were obtained:
[1] = Dynamic light scattering (DLS) analysis of cage size; format: physicochemical
[2] = tested on: MDA-MB231 cells expressing PD-L1; assay: Culture cell binding assay (confocal) on MDA-MB231 cells; format: cell-based; conditions: 100 nM, 4° C., 1 hour; anti-human ferritin heavy chain antibody staining
Method: (§1) Confocal laser scanning microscopy (Confocal) was performed. After culturing triple negative breast cancer cells (MDA-MB 231) or colorectal cancer cells (CT26), a group treated with 25 ng/ml of interferon-γ and a group without treatment were cultured at 37° C. for 24 hours. These cells are cancer cells expressing the PD-L1 receptor and are known to have expression increased upon interferon-γ treatment. […] In order to block nonspecific binding of PD-L1 proteins, blocking was performed using 1% BSA dissolved in PBS at room temperature for 1 hour, then BSA was removed, and PpNF, PpLF, and PpCF (100 nM) were reacted at 4° C. for 1 hour. After washing with PBS, a reaction was performed using anti-human ferritin heavy chain antibodies (1:200 ratio) for 1 hour, followed by staining (green). After fixing with 4% paraformaldehyde, observation was performed under a confocal microscope. To observe the nucleus, DAPI was dissolved in PBS in a ratio of 1:1000, and staining was performed at room temperature for 5-10 minutes (blue).

[3] = tested on: CT26 cells expressing PD-L1; assay: Culture cell binding assay (confocal) on CT26 cells; format: cell-based, mouse; conditions: 100 nM, 4° C., 1 hour; anti-human ferritin heavy chain antibody staining
Method: as §1

[4] = tested on: MCF-7 cells that do not express PD-L1; assay: Culture cell binding assay (confocal) on MCF-7 control cells; format: cell-based; conditions: 100 nM, 4° C., 1 hour; PD-L1-negative control cells
PD-1/PD-L1 binding = biological target: T1, PD-1/PD-L1 binding (Mus musculus, UniProt Q9EP73); assay: Co-culture of CT26 cancer cells and activated CD8+ T cells (immune checkpoint inhibitory function in vitro); format: cell-based
T1 construct: endogenous in cells
Method: CD8^+ T cells were extracted from the spleen obtained by sacrificing BALB/C mice. Extracted CD8^+ T cells were treated with interleukin-2/interleukin-15 and anti-CD-3 antibody/anti-CD-28 antibody each for 24 hours for activation. Prior to treating activated CD8^+ T cells with CFSE and performing symbiotic culture of tumor cells (CT26, mouse colon cancer), tumor cells were pretreated with anti-PD-L1 antibody, PpNF (25 nM or 50 nM), and PD-L1pep1 (50 nM), respectively, and interactions of PD-L1 of tumor cells and […] CD8^+ T cells were inhibited, respectively. After symbiotic culture for 24 hours, CD8^+ T cells were isolated (FIG. 4A). The degree of CFSE binding to isolated T cells was measured with a flow cytometer (FIG. 4B). In addition, the amount of interferon gamma secreted by isolated T cells was measured using an enzyme-linked immunosorbent assay (FIG. 4C).
CD8^+ T cells isolated from mice were activated (IL-2/IL-15 treatment and anti-CD3/anti-CD28 treatment), labeled with fluorescence (CFSE staining), and cultured with CT26 colorectal cancer cells.

GL26 glioblastoma = conditions: mouse, in vivo
Method: In addition, the glioblastoma targeting effect of the immune checkpoint blocking nanocage was identified. GL26, a glioblastoma cell line, was injected into the left side of the mouse brain to create an orthotopic GBM model and fluorescently labeled PBP1-N-FtH was injected into the tail vein [control: saline, ferritin].

CT26 tumor = format: in vivo, BALB/c wildtype mice
Method: CT26 cells were injected subcutaneously into the upper right thigh of BALB/c wildtype mice. When the tumor was about 100 mm^3 in size, mice were randomly divided into four groups. […] A total of 10 injections were performed once every two days (once every 4 days, repeated 6 times in total for anti-PD-L1 antibodies) to measure tumor size and weight of mice (FIGS. 7B and 7D). After 3 weeks, the tumor was removed by sacrificing mice and the tumor was weighed (FIG. 7C). The extracellular matrix of the removed tumor was degraded with collagenase to form single cells, and antibodies against labeled proteins of CD4^+ T cells, CD8^+ T cells, and regulatory T cells were each treated to analyze how many T cells are each present in the tumor by flow cytometry (FIGS. 7E to 7G).

[5] = Biotoxicity via blood and serologic analysis; format: in vivo, mice
Method: After antitumor animal experiments, blood and serum were collected from each group when sacrificing mice, and the amounts of red blood cells, hemoglobin, hematocrit, white blood cells, and neutrophils in the blood, blood urea nitrogen in serum, creatinine, alanine aminotransferase, and aspartate aminotransferase were measured and compared.

[6] = tested on: CT-2A cells overexpressing PD-L1; assay: In vitro binding to CT-2A glioma cells; format: cell-based, mouse; conditions: 4° C., 1 h; compared to wFTH
Method: (§2) Mouse glioma cells, CT-2A or GL26 cells, were treated with PpNF or wild-type ferritin (wFTH) at 4° C. for 1 h; binding was monitored by antiferritin antibody (green). Nuclei were visualized by counterstaining with DAPI (blue). Scale bars: 30 μm.

[7] = tested on: GL26 cells overexpressing PD-L1; assay: In vitro binding to GL26 glioma cells; format: cell-based, mouse; conditions: 4° C., 1 h; compared to wFTH
Method: as §2

CT-2A glioma [8] = tested on: CT-2A glioma; set-up: species or system C57BL/6 mice; conditions: mouse, in vivo, iv
Method: (A) Representative images of the upper body of mice. The yellow circle indicates the tumor. C57BL/6 mice were implanted with CT-2A glioma cells (3×10^5). At 14 days after intracranial inoculation, the tumor-bearing mice were intravenously injected with Flamma 675-labeled PpNF or wFTH followed by in vivo scanning with the IVIS imaging system. (B) Ex vivo biodistribution was examined at 24 h postinjection.
B6 mice aged 6-8 weeks were anesthetized with an intraperitoneal injection of Zoletil 50 (20 mg/kg, Virba) and Rompun (4 mg/kg, Bayer). For stereotactic intracranial injections of CT-2A cells, the surgical site was shaved and prepared with 70% ethyl alcohol. After disinfection and incision of the skin, tumor cells were stereotaxically implanted in the brain using the following coordinates: AP=+0.2 mm; ML=+2 mm; DV=−3 mm from the bregma. CT-2A cells (10^4 cells) were resuspended in 3 μl of PBS and implanted at an infusion rate of 3 μl/5 min.
For in vivo targeting of PD-L1pep ferritin nanocages in intracranial brain tumors, CT-2A cells (3×10^5 cells) were resuspended in 3 μl of PBS and implanted in the brain. At 14 days after implantation of CT-2A cells, Flamma 675-labeled Pp1NF, Pp2NF, and wt ferritin were intravenously injected (n=3 mice/group). […] Fluorescence emission values were analyzed as photons per second per centimeter squared per steradian (p/s/cm^2/sr).

CT-2A glioma [9] = assay: Antitumor activity in orthotopic CT-2A glioma mouse model; format: in vivo, C57BL/6 mice; conditions: 5 mg/kg intravenously three times per week, six injections
Method: (A) Experimental scheme for antitumor treatments. CT-2A syngeneic mouse brain tumor cells were implanted into the brains of C57BL/6 mice. Treatments were initiated at 7 days after confirming tumor growth by MRI. PpNF (5 mg/kg, n=3) or wFTH (5 mg/kg, n=3) were intravenously injected three times per week. (B) Representative brain MRI images showing tumor growth at 7, 14, and 21 days. The dotted line indicates the tumor region. (C) Tumor volumes measured by MRI. (D) Body weights. Data represent mean±SEM (*p<0.05; t-test). The data presented are representative of three independent experiments. B6 mice aged 6-8 weeks were anesthetized with an intraperitoneal injection of Zoletil 50 (20 mg/kg, Virba) and Rompun (4 mg/kg, Bayer). For stereotactic intracranial injections of CT-2A cells, the surgical site was shaved and prepared with 70% ethyl alcohol. After disinfection and incision of the skin, tumor cells were stereotaxically implanted in the brain using the following coordinates: AP=+0.2 mm; ML=+2 mm; DV=−3 mm from the bregma. CT-2A cells (10^4 cells) were resuspended in 3 μl of PBS and implanted at an infusion rate of 3 μl/5 min. […] Tumor growth was examined by animal MRI (7T BioSpec 70/20USR) in the tumor-bearing mice using Onis 2.5 viewer software, and tumor volume was calculated (Average tumor cross-sectional area (mm^2)×summed thickness of tumor cross-sections (mm).

[10] = tested on: CD8+ T cells cocultured with CT-2A; assay: Triple coculture of CD8+ T cells with CT-2A glioma cells and primary glia; format: cell-based, mouse; conditions: 25 nM, 48 h triple coculture
Method: CD8^+ T cells were directly cocultured with CT-2A (A,B) or GL26 (C, D) glioma cells in the presence of glia. Cocultures were treated with 25 nM wild-type nanocage (wFTH), PD-L1pep1 ferritin nanocage (PpNF) or their corresponding buffer (buf), respectively. Fold changes in IFN-γ secretion during triple coculture using (A) CT-2A or (C) GL26 cells with the indicated treatments. T cell-only group was used as a control. (B) Proliferation of CD8^+ T cells during coculture with CT-2A and primary glia. The percentages of daughter cells upon cell division were determined using CellTrace Violet (CTV) dye. (D) Expression of CD107a on the surface of CD8^+ T cells after triple coculture using GL26. The percentages of CD107a^+ populations in live CD8^+ T cells were measured by flow cytometry. All graphs represent mean±SD; n=3 independent wells. […]
(§3) Cocultures were treated with 25 nM ferritin nanocages (PpNF or Pp2NF) including the wild-type nanocage (wFTH) or their corresponding buffer, respectively. […] IFN-γ concentrations were quantified with a mouse IFN-γ ELISA kit (R&D Systems Inc., SMIF00) as previously described. […]
Annexin-V as described above. The percentages of CTV dilution upon cell division were measured by flow cytometry. All flow cytometry data were obtained using a BD FACS Verse cytometer and analyzed by FlowJo software (Tree Star).

[11] = tested on: CD8+ T cells cocultured with GL26; assay: Triple coculture of CD8+ T cells with GL26 glioma cells and primary glia; format: cell-based, mouse; conditions: 25 nM, 48 h triple coculture, IFN-γ secretion, CD107a
Method: CD8^+ T cells were directly cocultured with CT-2A (A,B) or GL26 (C, D) glioma cells in the presence of glia. Cocultures were treated with 25 nM wild-type nanocage (wFTH), PD-L1pep1 ferritin nanocage (PpNF) or their corresponding buffer (buf), respectively. Fold changes in IFN-γ secretion during triple coculture using (A) CT-2A or (C) GL26 cells with the indicated treatments. T cell-only group was used as a control. (B) Proliferation of CD8^+ T cells during coculture with CT-2A and primary glia. The percentages of daughter cells upon cell division were determined using CellTrace Violet (CTV) dye. (D) Expression of CD107a on the surface of CD8^+ T cells after triple coculture using GL26. The percentages of CD107a^+ populations in live CD8^+ T cells were measured by flow cytometry. All graphs represent mean±SD; n=3 independent wells. (*p<0.05, **p<0.01, ***p<0.001, and ****p<0.0001; multiple comparisons were conducted using one-way ANOVA followed by Tukey's test.)
Primary glia were cultured from C57BL/6 mice, and the cells were seeded in a 96-well flat bottom plate at a density of 10^4 cells/well. […]
as §3

T1 sequence (Q9EP73 19-290): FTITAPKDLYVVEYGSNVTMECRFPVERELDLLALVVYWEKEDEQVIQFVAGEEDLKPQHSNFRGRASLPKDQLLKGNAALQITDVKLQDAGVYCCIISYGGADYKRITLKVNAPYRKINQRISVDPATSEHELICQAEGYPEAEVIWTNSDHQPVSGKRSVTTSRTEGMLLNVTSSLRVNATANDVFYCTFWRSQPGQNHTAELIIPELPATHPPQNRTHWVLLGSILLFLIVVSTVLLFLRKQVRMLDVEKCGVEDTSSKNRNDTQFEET

## PpNF: Ferritin nanocage: PD-L1-binding peptide 1 (CLQKTPKQC) inserted at nitrogen terminal of human ferritin heavy chain fragment (1-161) with GG linker
[1]
  cage size (DLS): about 24 nm
[2]
  binding in MDA-MB231 cells: bound
[3]
  binding in CT26 cells: bound
[4]
  binding in MCF-7 cells: the binding did not take place
PD-1/PD-L1 binding; 24 hours co-culture, PpNF 25 nM or 50 nM
  IFN-γ secreted by T cells (ELISA): IFN-γ increment
PD-1/PD-L1 binding; versus PD-L1 antibody, PD-L1pep1 (50 nM)
  immune checkpoint inhibitory effect versus comparators: better than that of PD-L1 antibody or PD-L1pep1
GL26 glioblastoma
  glioblastoma targeting (brain fluorescence signal): targeted to the tumor site on the left side of the brain
CT26 tumor; 10 mg/kg tail vein, 10 injections once every two days
  tumor growth: significantly inhibited tumor growth compared to the control
CT26 tumor; after 3 weeks
  weight of the tumor: much smaller
CT26 tumor; flow cytometry
  proportion of CD8+ T cells in the tumor: increasing the proportion of CD8^+ T cells in the tumor
  ratio of CD8+ T cells and regulatory T cells in the tumor: significantly increased compared to the control
[5]; blood after antitumor animal experiments
  hematologic change: no significant hematologic change
[5]; serum after antitumor animal experiments
  hepatotoxicity or nephrotoxicity (BUN, creatinine, ALT, AST): No hepatotoxicity or nephrotoxicity was observed
[6]
  binding in CT-2A glioma cells: bound specifically
[7]
  binding in GL26 glioma cells: bound specifically
CT-2A glioma [8]
  BBB crossing: crossed the BBB
  accumulation in glioblastoma in the brain: accumulated in glioblastoma expressed in the brain by 24 hours
CT-2A glioma [9]
  antitumor effects (tumor volume by MRI): showed antitumor effects
[10]; CTV dye
  proliferation of CD8+ T cells: increased
[10]; IFN-γ secretion
  activity of CD8+ T cells: increased
[11]
  activity of CD8+ T cells: increased
